Results from article PMC2822059 (Nature chemical biology, 2010).

What was measured:
[1] = tested on: H976Y HDAC4; conditions: mutant versus wild type; cited from earlier work
[2] = tested on: acetylated histones (AcH3K18), Jurkat cells; test: Immunoblot for acetylated histones in treated cells; type: cell-based, human; conditions: 24 hours, time- and dose-dependent
[3] = tested on: acetylated alpha-tubulin (AcTub), Jurkat cells; test: Immunoblot for acetylated alpha-tubulin in treated cells; type: cell-based, human; conditions: 24 hours, time- and dose-dependent

SMILES: O=C(/C=C/c1ccc(CN(CCO)CCc2c[nH]c3ccccc23)cc1)NO [LAQ-824]
- increased affinity for H976Y HDAC4 gain of function mutant [1]: 100 fold

SMILES: O=C(/C=C/c1ccc(C(=O)N/N=C/c2ccc(O)c(O)c2O)cc1)NO [pandacostat]
- hyperacetylation of Class I deacetylase targets (bulk histones) [2]: confers hyperacetylation
- hyperacetylation of HDAC6 target α-tubulin [3]: confers hyperacetylation
